# Measurements reported in patent US5904857A, “4-alkyl and aryl semicarbazides as oxygen scavengers” (Nalco Chemical Company, priority 1997, dated 1999).
# How the values were obtained:
# [1] = Long term stability: hydrazine concentrations in high amine formulations over weeks (procedure of Example 5); format: physicochemical
# Description: The procedure described in Example 5 was utilized to study long term stability. […] Thus, they are more advantageous than the conventional carbohydrazide treatment.
# [2] = Comparative stability study: hydrazine buildup in high amine formulations over days (p-dimethylaminobenzaldehyde method, ASTM D1385-78); format: physicochemical
# [3] = Oxygen scavenger screening: dissolved O2 in effluent water (apparatus of FIG. 1); conditions: Equivalence Scavenger:O2 2:1, 250 ° F., feed pH 9.0-9.5
# Description: The apparatus of FIG. 1 was utilized to evaluate the efficiency of various oxygen scavengers. Reference is made to FIG. 1. The feedstream was ambient temperature (22° C.) air-saturated deionized water. Air-saturation of the feedwater was maintained with a continuous purge with CO2 -free air. The pH of the feedwater was adjusted to within the range of 9.0-9.5 with reagent grade sodium hydroxide. All wetted parts were constructed from 316 stainless steel. Syringe infusion pumps were used for injection of scavenger and catalyst. A metering pump pressurized the flow to 85 psig. The first heating bath heated the water stream to about 214° F. in about 30 seconds. The water residence time in the second bath was 4.5 minutes, and the effluent temperature was 251° F. The water stream was cooled slightly below ambient temperature within a few seconds, the pressure was released, and the oxygen concentration of the effluent water was continuously monitored utilizing an Orbisphere oxygen probe at the exit sample point.
# The data of Table 1 illustrate a remarkable reduction in dissolved O2 for the scavengers of this invention when utilized in conjunction with a catalyst in this temperature range.
# [4] = cited from earlier work
# [5] = cited from earlier work; remark: listed apart in the source
# [6] = 6% scavenger / 40% CHA (cyclohexylamine)
# [7] = 6% scavenger in 40% cyclohexylamine
# [8] = catalyst none, None (untreated) 7800-8300
structure (smiles),measurement,setting,value
"NNC(=O)NN [CHz, carbohydrazide]",Hydrazine (ppm) at 0 weeks,[1]; [6],433 ppm
same,Hydrazine (ppm) at 5 weeks,[1]; [6],6300 ppm
same,Hydrazine (ppm) at 0 weeks,[1]; 6% scavenger / 40% morpholine,94 ppm
same,Hydrazine (ppm) at 5 weeks,[1]; 6% scavenger / 40% morpholine,2016 ppm
same,Hydrazine (ppm) at 0 days,[2]; [7],433 ppm
same,Hydrazine (ppm) at 3 days,[2]; [7],1420 ppm
same,Hydrazine (ppm) at 6 days,[2]; [7],2100 ppm
same,Hydrazine (ppm) at 0 days,[2]; 6% scavenger in 40% morpholine,94 ppm
same,Hydrazine (ppm) at 3 days,[2]; 6% scavenger in 40% morpholine,280 ppm
same,Hydrazine (ppm) at 6 days,[2]; 6% scavenger in 40% morpholine,465 ppm
same,Hydrazine (ppm) at 0 days,"[2]; 6% scavenger, no amine",54 ppm
same,Hydrazine (ppm) at 3 days,"[2]; 6% scavenger, no amine",56 ppm
same,Hydrazine (ppm) at 6 days,"[2]; 6% scavenger, no amine",59 ppm
"CCN(CC)C(=O)NN [4,4-diethylsemicarbazide, N,N-diethylsemicarbazide]",Hydrazine (ppm) at 0 weeks,[1]; [6],114 ppm
same,Hydrazine (ppm) at 5 weeks,[1]; [6],149 ppm
same,Hydrazine (ppm) at 8 weeks,"[1]; 6% scavenger / 40% CHA (cyclohexylamine), 8 weeks",178 ppm
same,Dissolved O2,[3]; catalyst Co,6500 ppb
same,Dissolved O2,[3]; catalyst Cu,189 ppb
same,Dissolved O2,[3]; [8],7300 ppb
"NN [Hydrazine, hydrazine]",elimination of residual oxygen,[4]; Kirk-Othmer,efficiently eliminates the residual oxygen
same,metal passivation,[4]; adherent protective layer of magnetite over iron surfaces,good metal passivator
same,Dissolved O2,[3]; catalyst Cu,241 ppb
same,Dissolved O2,[3]; [8],7500 ppb
same,absorption,[5]; Kirk-Othmer,"readily absorbed through the mouth, skin and respiratory system"
same,toxicity,[5]; Kirk-Othmer,highly toxic
same,corneal damage,[5]; contact with the eye,permanent corneal damage may result from contact with the eye
same,high dose effects,[5]; high doses,high doses may cause convulsions and other damaging side effects
same,low dose effects,[5]; low doses,Low doses may cause central nervous system depression
"CC(C)NC(=O)NN [4-isopropylsemicarbazide, N-isopropyl semicarbazide]",Dissolved O2,[3]; catalyst Co,6500 ppb
same,Dissolved O2,[3]; catalyst Cu,98 ppb
same,Dissolved O2,[3]; [8],7500 ppb
NNC(=O)Nc1ccccc1 [4-phenyl semicarbazide],Dissolved O2,[3]; catalyst Co,4180 ppb
same,Dissolved O2,[3]; catalyst Cu,164 ppb
same,Dissolved O2,[3]; [8],7480 ppb
